In the supplement of paper PMC11061612:

What was measured:
Assay in all cases: combination Emax (second highest fraction inhibited in the dose matrix, 72 h); higher = more inhibition; extreme values may be limits of the assay
[1] = system: CAL-27 (Oral Cavity Carcinoma)
How it was run: (§1)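 Bliss excess equals the observed combination effect minus the expected value EA + EB − EA·EB, where EA and EB are the effects of each agent alone. Combination Emax is the second-highest inhibition within the matrix. Inhibition was scaled from CellTiter-Glo 2.0 luminescence, with 0 set by vehicle wells and 1 by blank wells, after 72 hours of two-drug dosing of cells plated in 1536-well plates.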

[2] = system: Jurkat (T-Lymphoblastic Leukemia)
How it was run: as §1

EB2 (Burkitt's Lymphoma) = system: EB2 (Burkitt's Lymphoma)
How it was run: as §1

EW-16 (Ewing's Sarcoma) = system: EW-16 (Ewing's Sarcoma)
How it was run: as §1

[3] = system: HCC1428 (Breast Carcinoma)
How it was run: as §1

[4] = system: DU-4475 (Breast Carcinoma)
How it was run: as §1

769-P (Kidney Carcinoma) = system: 769-P (Kidney Carcinoma)
How it was run: as §1

[5] = system: EPLC-272H (Other Solid Carcinomas)
How it was run: as §1

[6] = system: G-402 (Other Solid Carcinomas)
How it was run: as §1

5637 (Bladder Carcinoma) = system: 5637 (Bladder Carcinoma)
How it was run: as §1

PEO1 (Ovarian Carcinoma) = system: PEO1 (Ovarian Carcinoma)
How it was run: as §1

[7] = system: MHH-ES-1 (Ewing's Sarcoma)
How it was run: as §1

WM1552C (Melanoma) = system: WM1552C (Melanoma)
How it was run: as §1

RH-41 (Rhabdomyosarcoma) = system: RH-41 (Rhabdomyosarcoma)
How it was run: as §1

[8] = system: KYSE-140 (Esophageal Squamous Cell Carcinoma)
How it was run: as §1

[9] = system: OACp4C (Esophageal Adenocarcinoma)
How it was run: as §1

[10] = system: LU-165 (Small Cell Lung Carcinoma)
How it was run: as §1

[11] = system: A2780 (Ovarian Carcinoma)
How it was run: as §1

[12] = system: A253 (Head and Neck Carcinoma)
How it was run: as §1

[13] = system: SK-HEP-1 (Hepatocellular Carcinoma)
How it was run: as §1

Row | Compound | combination Emax [1] | combination Emax [2] | combination Emax (EB2 (Burkitt's Lymphoma)) | combination Emax (EW-16 (Ewing's Sarcoma)) | combination Emax [3] | combination Emax [4] | combination Emax (769-P (Kidney Carcinoma)) | combination Emax [5] | combination Emax [6] | combination Emax (5637 (Bladder Carcinoma)) | combination Emax (PEO1 (Ovarian Carcinoma)) | combination Emax [7] | combination Emax (WM1552C (Melanoma)) | combination Emax (RH-41 (Rhabdomyosarcoma)) | combination Emax [8] | combination Emax [9] | combination Emax [10] | combination Emax [11] | combination Emax [12] | combination Emax [13]
1 | CC1(C)CCC(CN2CCN(c3ccc(C(=O)NS(=O)(=O)c4ccc(NCC5CCOCC5)c([N+](=O)[O-])c4)c(Oc4cnc5[nH]ccc5c4)c3)CC2)=C(c2ccc(Cl)cc2)C1 [Venetoclax] + C=CCn1c(=O)c2cnc(Nc3ccc(N4CCN(C)CC4)cc3)nc2n1-c1cccc(C(C)(C)O)n1 [AZD1775] (first compound max 1 µM, partner max 1 µM) | 0.328 | 0.907 | 0.932 | 0.526 | 0.22 | 1 | 0.744 | 0.761 | 0.435 | 0.861 | 0.337 | 0.776 | 0.785 | 1 | 0.814 | 0.897 | 0.364 | 0.927 | 0.313 | 0.34
2 | NC1(C(=O)N[C@@H](CCO)c2ccc(Cl)cc2)CCN(c2ncnc3[nH]ccc23)CC1 [Capivasertib] + CCN(CCO)CCCOc1ccc2c(Nc3cc(CC(=O)Nc4cccc(F)c4)[nH]n3)ncnc2c1 [AZD2811] (first compound max 10 µM, 7x7, partner max 1 µM) | 0.646 | 0.717 | 0.653 | 0.634 | 0.465 | 0.679 | 0.422 | 0.708 | 0.658 | 0.572 | 0.418 | 0.665 | 0.447 | 0.943 | 0.829 | 0.897 | 0.47 | 0.812 | 0.695 | 0.533
3 | C=CCn1c(=O)c2cnc(Nc3ccc(N4CCN(C)CC4)cc3)nc2n1-c1cccc(C(C)(C)O)n1 [AZD1775] + O=C(c1cc(Cc2n[nH]c(=O)c3ccccc23)ccc1F)N1CCN(C(=O)C2CC2)CC1 [Olaparib] (first compound max 1 µM, partner max 10 µM) | 0.525 | 0.842 | 0.848 | 0.529 | 0.375 | 0.933 | 0.716 | 0.761 | 0.41 | 0.836 | 0.384 | 0.886 | 0.486 | 0.953 | 0.733 | 0.806 | 0.342 | 0.76 | 0.35 | 0.462
4 | COc1cccc(OCCCN)c1-c1cc(Nc2cnc(C#N)cn2)n[nH]1 [Prexasertib] + CCc1c2c(nc3ccc(O)cc13)-c1cc3c(c(=O)n1C2)COC(=O)[C@]3(O)CC [SN-38] (first compound max 1 µM, 7x7, partner max 0.3 µM) | 0.948 | 1 | 0.976 | 0.984 | 0.797 | 1 | 0.789 | 0.922 | 0.868 | 1 | 0.71 | 1 | 0.833 | 1 | 0.945 | 0.918 | 0.642 | 0.857 | 0.966 | 0.761
5 | CN(C)CCCOc1ccc(-c2ccc3ncc4c(c3c2)n(C2CCOCC2)c(=O)n4C)cn1 [AZD0156] + C[C@@H]1COCCN1C2=NC(=NC(=C2)C3(CC3)[S@](=N)(=O)C)C4=C5C=CNC5=NC=C4 [AZD6738] (first compound max 1 µM, 7x7, partner max 10 µM) | 0.586 | 0.898 | 0.774 | 0.695 | 0.132 | 0.913 | 0.84 | 0.903 | 0.534 | 0.712 | 0.533 | 0.638 | 0.783 | 0.874 | 0.934 | 0.724 | 0.233 | 0.81 | 0.794 | 0.391
6 | Cn1cnc2c(F)c(Nc3ccc(Br)cc3Cl)c(C(=O)NOCCO)cc21 [Selumetinib] + CCN(CCO)CCCOc1ccc2c(Nc3cc(CC(=O)Nc4cccc(F)c4)[nH]n3)ncnc2c1 [AZD2811] (first compound max 10 µM, 7x7, partner max 1 µM) | 0.611 | 0.203 | 0.182 | 0.551 | 0.297 | 1 | 0.356 | 0.634 | 0.578 | 0.81 | 0.29 | 0.609 | 0.439 | 0.309 | 0.294 | 0.838 | 0.158 | 0.702 | 0.348 | 0.362
